Drawing on US5633248A, “Amine compounds, their production and use” (priority 1994, dated 1997), this text covers IC50 for 11 compounds.

Assay [1] deals with T1, Human GnRH receptor (Homo sapiens, UniProt P30968).
T1 construct: expressed in transfected cells; host or cells: CHO (Chinese hamster ovary) cells, membrane fraction
T1 sequence (P30968 1-328): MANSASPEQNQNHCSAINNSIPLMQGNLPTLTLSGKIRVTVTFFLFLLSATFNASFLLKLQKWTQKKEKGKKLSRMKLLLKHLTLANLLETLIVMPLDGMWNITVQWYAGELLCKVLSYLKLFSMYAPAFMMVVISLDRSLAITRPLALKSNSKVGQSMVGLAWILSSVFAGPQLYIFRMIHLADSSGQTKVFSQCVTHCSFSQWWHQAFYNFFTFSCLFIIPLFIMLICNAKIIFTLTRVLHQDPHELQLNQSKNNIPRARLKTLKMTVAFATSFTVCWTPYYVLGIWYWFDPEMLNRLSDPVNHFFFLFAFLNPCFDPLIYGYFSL
Nature of the assay: ^125 I-leuprolerin binding inhibition, human GnRH receptor-expressed CHO cell membrane fraction. Particulars: 25° C. for 60 minutes, read-out: GnRH-receptor binding inhibitory activity (IC50, μM) Man. The protocol: A tube was filled with 10 μl of an aqueous solution of leuprolerin (3×10^4 M) and lactoperoxidase (0.01 mg/ml) followed by addition of 10 μl of Na^125 I solution (37 MBq). After stirring, 10 μl of 0.001% H2 O2 was added and the reaction was conducted at room temperature for 20 minutes. The reaction was stopped by adding 700 μl of 0.05% TFA and the reaction mixture was subjected to reversed-phase HPLC under the conditions set forth below. ^125 I-leuprolerin was eluted with a retention time of 26-27 minutes. […] To the sediment was added 10 ml of a cell homogenate buffer (10 mM NaHCO3, 5 mM EDTA, pH 7.5) and the mixture was homogenized using a Polytron homogenizer. The homogenate was centrifuged at 400 xg for 15 minutes and the supernatant was transferred to an ultracentrifuge cuvette and centrifuged at 100,000 xg for 1 hour to prepare a membrane fraction pellet. This pellet was suspended in 2 ml of the assay buffer and further centrifuged at 100,000 xg for 1 hour. The membrane fraction recovered as a pellet was resuspended in 20 ml of the assay buffer, distributed into vials, preserved at -80° C., and reconstituted before use. The rat and human membrane fractions prepared under (B) and (D) were respectively diluted with the assay buffer to make 200 μg/ml each and 188 μl aliquots of each dilution were distributed into tubes. The bovine membrane fraction prepared under (C) was diluted with the assay buffer to make 750 μg/ml and 188 μl aliquots of the dilution were distributed into tubes. When the rat anterior pituitary membrane fraction was used, 2 μl of 0.1 mM compound/60% dimethyl sulfoxide (DMSO) and 10 μl of 38 nM ^125 I-leuprolerin were concurrently added. […] For determination of maximum binding, a reaction mixture was prepared by adding 2 μl of 60% DMSO and 10 μl of 38 nM ^125 I-leuprolerin. For determination of non-specific binding, a reaction mixture was prepared using 2 μl of 100 μM leuprolerin/60% DMSO and 10 μl of […] ^125 I-leuprolerin. When the rat and bovine anterior pituitary membrane fractions were used, each reaction was carried out at 4° C. for 90 minutes. On the other hand, when the human GnRH receptor-expressed CHO cell membrane fraction was used, the reaction was conducted at 25° C. for 60 minutes. After completion of the reaction, the reaction mixture was suction-filtered through a polyethyleneimine-treated Whatman glass filter (GF-F) [trademark;whatman]. After filtration, the radioactivity of the residual ^125 I-leuprolerin on the filter was measured using a γ-counter. The computation formula of (TB-SB)/(TB-NSB)×100 (SB=radioactivity bound in the presence of the test compound, TB=maximum amount of radioactivity bound, NSB=amount of radioactivity nonspecifically bound) was calculated to find the binding inhibition rate for the test compound. Moreover, the inhibition rate was determined by varying the concentration of each test compound and the concentration of the compound causing 50% inhibition of binding (IC50 value) was calculated by Hill plot.

Assay [2] addresses T2, Rat GnRH Receptor (Rattus norvegicus, UniProt P30969).
T2 construct: from tissue; host or cells: anterior pituitary of male Wistar rats (8 weeks old), membrane fraction
T2 sequence (P30969 1-327): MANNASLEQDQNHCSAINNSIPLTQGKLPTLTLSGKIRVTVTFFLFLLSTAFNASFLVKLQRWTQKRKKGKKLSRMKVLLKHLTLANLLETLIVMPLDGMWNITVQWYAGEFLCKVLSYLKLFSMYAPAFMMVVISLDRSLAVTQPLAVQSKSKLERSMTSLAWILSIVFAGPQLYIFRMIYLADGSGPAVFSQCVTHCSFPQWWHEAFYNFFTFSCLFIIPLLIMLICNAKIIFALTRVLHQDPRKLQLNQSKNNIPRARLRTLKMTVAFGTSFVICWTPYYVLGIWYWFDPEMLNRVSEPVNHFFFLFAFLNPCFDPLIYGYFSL
The assay can be described thus: ^125 I-leuprolerin binding inhibition, rat anterior pituitary membrane fraction. Details: species or system rat (Wistar). Particulars: 4° C. for 90 minutes, read-out: GnRH-receptor binding inhibitory activity (IC50, μM) Rat. The protocol: A tube was filled with 10 μl of an aqueous solution of leuprolerin (3×10^4 M) and lactoperoxidase (0.01 mg/ml) followed by addition of 10 μl of Na^125 I solution (37 MBq). After stirring, 10 μl of 0.001% H2 O2 was added and the reaction was conducted at room temperature for 20 minutes. The reaction was stopped by adding 700 μl of 0.05% TFA and the reaction mixture was subjected to reversed-phase HPLC under the conditions set forth below. ^125 I-leuprolerin was eluted with a retention time of 26-27 minutes. Forty rats (8 weeks old, male) of Wistar strain were decapitated under no anesthesia and the anterior pituitary isolated from each animal was washed with an ice-cooled homogenate buffer (25 mM Tris (tris(hydroxylmethyl)aminomethane)-HCl, 0.3M sucrose, 1 mM EGTA (ethylene-bis(oxyethylenenitrilo)tetraacetic acid), 0.25 mM PMSF (phenylmethylsulfonyl fluoride), 10 U/ml aprotinin, 1 μg/ml pepstatin, 20 μg/ml leupeptin, 100 μg/ml phosphoramidon, 0.03% sodium azide; pH 7.5). The anterior pituitary was suspended in 2 ml of the same homogenate buffer as above and homogenized using a Polytron homogenizer. The homogenate thus prepared was centrifuged at 700 xg for 15 minutes and the supernatant was transferred to an ultracentrifuge cuvette and further centrifuged at 100,000 xg for 1 hour to provide a membrane fraction pellet. This pellet was suspended in 2 ml of an assay buffer (25 mM Tris-HCl, 1 mM ethylenediaminetetraacetic acid (EDTA), 0.1% bovine serum albumin (BSA), 0.25 mM PMSF, 1 μg/ml pepstatin, 20 μg/ml leupeptin, 100 μg/ml phosphoramidon, 0.03% sodium azide; pH 7.5) and centrifuged at 100,000 xg for 1 hour. The membrane fraction recovered as a pellet was resuspended in 10 ml of the same assay buffer as above, distributed into vials, preserved at -80° C., and reconstituted before use. The rat and human membrane fractions prepared under (B) and (D) were respectively diluted with the assay buffer to make 200 μg/ml each and 188 μl aliquots of each dilution were distributed into tubes. The bovine membrane fraction prepared under (C) was diluted with the assay buffer to make 750 μg/ml and 188 μl aliquots of the dilution were distributed into tubes. When the rat anterior pituitary membrane fraction was used, 2 μl of 0.1 mM compound/60% dimethyl sulfoxide (DMSO) and 10 μl of 38 nM ^125 I-leuprolerin were concurrently added. […] For determination of maximum binding, a reaction mixture was prepared by adding 2 μl of 60% DMSO and 10 μl of 38 nM ^125 I-leuprolerin. For determination of non-specific binding, a reaction mixture was prepared using 2 μl of 100 μM leuprolerin/60% DMSO and 10 μl of […] ^125 I-leuprolerin. When the rat and bovine anterior pituitary membrane fractions were used, each reaction was carried out at 4° C. for 90 minutes. On the other hand, when the human GnRH receptor-expressed CHO cell membrane fraction was used, the reaction was conducted at 25° C. for 60 minutes. After completion of the reaction, the reaction mixture was suction-filtered through a polyethyleneimine-treated Whatman glass filter (GF-F) [trademark;whatman]. After filtration, the radioactivity of the residual ^125 I-leuprolerin on the filter was measured using a γ-counter. The computation formula of (TB-SB)/(TB-NSB)×100 (SB=radioactivity bound in the presence of the test compound, TB=maximum amount of radioactivity bound, NSB=amount of radioactivity nonspecifically bound) was calculated to find the binding inhibition rate for the test compound. Moreover, the inhibition rate was determined by varying the concentration of each test compound and the concentration of the compound causing 50% inhibition of binding (IC50 value) was calculated by Hill plot.

Structures can show the parent of a compound that is named as a salt.

For `COc1ccc(CC(=O)NCCCC(CCCN2CCCCC23CCc2cc(OC)c(OC)cc2C3)(c2ccccc2)c2ccccc2)cc1` (stereo not shown) [II-58, 3,4-Dihydro-6,7-dimethoxy-1'-{4,4-diphenyl-7-[(4-methoxyphenylacetyl)amino]heptyl}spiro[naphthalene-2(1H),2'-piperidine] hydrochloride], the IC50 (as a rule, the point on the concentration scale where inhibition reaches its midpoint) was determined as 0.11 µM in assay [1] and 0.0016 µM in assay [2].

With `COc1cc2c(cc1OC)CC1(CCCCN1CCCC(CCCNC(=O)CCc1ccccc1)(c1ccccc1)c1ccccc1)CC2` (stereo not shown) [II-64, 3,4-Dihydro-6,7-dimethoxy-1'-{4,4-diphenyl-7-[(3-phenylpropionyl)amino]heptyl}spiro[naphthalene-2(1H),2'-piperidine] hydrochloride], the IC50 in assay [1] was found to be 0.2 µM; in assay [2] it was 0.009 µM.

For the compound `COc1cc2c(cc1OC)CC1(CCCCN1CCCC(CCCNC(=O)Cc1ccc(F)cc1)(c1ccccc1)c1ccccc1)CC2` (stereo not shown) [II-50, 3,4-Dihydro-6,7-dimethoxy-1'-{4,4-diphenyl-7-[(4-fluorophenylacetyl)amino]heptyl}spiro[naphthalene-2(1H),2'-piperidine] hydrochloride], the values for the IC50 in assay [1] and in assay [2] were 0.08 µM and 0.0007 µM, respectively.

Consider `COc1ccc(CC(=O)NCCCC(CCCN2CCCCC23CCc2cc(OC)c(OC)cc2C3)(c2ccc(F)cc2)c2ccc(F)cc2)cc1` (stereo not shown) [II-68, 3,4-Dihydro-6,7-dimethoxy-1'-{4,4-bis(4-fluorophenyl)-7-[(4-methoxyphenylacetyl)amino]heptyl}spiro[naphthalene-2(1H),2'-piperidine] hydrochloride], for which the values for the IC50 in assay [1] and in assay [2] were 0.4 µM and 0.009 µM, respectively.

For the compound `COc1ccc(CCC(=O)NCCCC(CCCN2CCCCC23CCc2cc(OC)c(OC)cc2C3)(c2ccccc2)c2ccccc2)cc1` (stereo not shown) [II-65, 3,4-Dihydro-6,7-dimethoxy-1'-{4,4-diphenyl-7-{[3-(4-methoxyphenyl)propionyl]amino}heptyl}spiro[naphthalene-2(1H),2'-piperidine] hydrochloride], the results for the IC50 in assay [1] and in assay [2] were 0.02 µM and 0.001 µM, respectively.

On to `COc1cc2c(cc1OC)CC1(CCCCN1CCCC(CCCNC(=O)Cc1ccc(Cl)cc1)(c1ccccc1)c1ccccc1)CC2` (stereo not shown) [II-51, 3,4-Dihydro-6,7-dimethoxy-1'-{4,4-diphenyl-7-[(4-chlorophenylacetyl)amino]heptyl}spiro[naphthalene-2(1H),2'-piperidine] hydrochloride], for which the IC50 came to 0.08 µM in assay [1] and 0.002 µM in assay [2].

Consider `COc1cc2c(cc1OC)CC1(CCCCN1CCCC(CCCNC(=O)Cc1ccccc1)(c1ccccc1)c1ccccc1)CC2` (stereo not shown) [II-48, 3,4-Dihydro-6,7-dimethoxy-1'-[4,4-diphenyl-7-(phenylacetylamino)heptyl]spiro[naphthalene-2(1H),2'-piperidine] hydrochloride], for which the values for the IC50 in assay [1] and in assay [2] were 0.2 µM and 0.002 µM, respectively.

For `COc1ccc(CC(=O)NCCCC(CCCN2CCCCC23CCc2cc(OC)c(OC)cc2C3)(c2ccccc2)c2ccccc2)cc1OC` (stereo not shown) [II-59, 3,4-Dihydro-6,7-dimethoxy-1'-{7-[(3,4-dimethoxyphenylacetyl)amino]-4,4-diphenylheptyl}spiro[naphthalene-2(1H),2'-piperidine] hydrochloride], the IC50 in assay [1] was 0.4 µM; in assay [2], 0.02 µM.

Take `COc1cc2c(cc1OC)CC1(CCCCN1CCCC(CCCNC(=O)Cc1ccc([N+](=O)[O-])cc1)(c1ccccc1)c1ccccc1)CC2` (stereo not shown) [II-53, 3,4-Dihydro-6,7-dimethoxy-1'-{4,4-diphenyl-7-[(4-nitrophenylacetyl)amino]heptyl}spiro[naphthalene-2(1H),2'-piperidine] hydrochloride]: the results for the IC50 in assay [1] and in assay [2] were 0.8 µM and 0.01 µM, respectively.

As for `COc1cc2c(cc1OC)CC1(CCCCN1CCCC(CCCNC(=O)Cc1cccc3ccccc13)(c1ccccc1)c1ccccc1)CC2` (stereo not shown) [II-66, 3,4-Dihydro-6,7-dimethoxy-1'-{4,4-diphenyl-7-[(1-naphthylacetyl)amino]heptyl}spiro[naphthalene-2(1H),2'-piperidine] hydrochloride], the IC50 in assay [1] was 0.3 µM; in assay [2], 0.003 µM.

`COc1cc2c(cc1OC)CC1(CCCCN1CCCC(CCCNC(=O)Cc1ccsc1)(c1ccccc1)c1ccccc1)CC2` (stereo not shown) [II-63, 3,4-Dihydro-6,7-dimethoxy-1'-{4,4-diphenyl-7-[(3-thienylacetyl)amino]heptyl}spiro[naphthalene-2(1H),2'-piperidine] hydrochloride]: the IC50 was 0.4 µM in assay [1] and 0.001 µM in assay [2].
